# Assay results from patent US7417144B2, “Factor Xa inhibitors” (Hoffman-La Roche Inc., priority 2005, dated 2008).
# Molecular target: T1, human factor Xa (Homo sapiens, UniProt P00742)
# T1 construct: purchased Enzyme Research Laboratories
# Assay: Factor Xa chromogenic peptide substrate (S-2222) assay
# Assay type: biochemical
# Conditions: apparent Ki from IC50 by Cheng-Prusoff; enzyme 3 nM, substrate S-2222, pH 7.8, room temperature
# Description: Factor Xa activity was measured spectrophotometrically in microtiter plates in a final volume of 150 μl using the following conditions: Inhibition of human factor Xa (Enzyme Research Laboratories) was tested at an enzyme concentration of 3 nM using the chromogenic substrate S-2222 (Chromogenix AB, Mölndal, Sweden) at […]. The reaction kinetics of the enzyme and the substrate were linear with both time and the enzyme concentration. The inhibitors were dissolved in DMSO and tested at various concentrations up to 100 μM. The inhibitors were diluted using HNPT buffer consisting of HEPES 100 mM, NaCl 140 mM, PEG 6000 0.1% and Tween 80 0.02%, pH 7.8. The cleavage of S-2222 by human factor Xa was followed at 405 nm for 5 minutes at room temperature. The velocity of the reaction was determined by the autoreader from the slope of the linear regression fit to 7 time points (1 minute). The initial velocity for each inhibitor concentration was determined by the slope of at least 4 time points in the linear phase by a linear regression fit […]. Apparent dissociation constants Ki were calculated according to Cheng and Prusoff [Cheng, Y. C.; Prusoff, W. H. Relationship between the inhibition constant (Ki) and the concentration of the inhibitor that causes 50 percent inhibition (IC50) of an enzyme reaction. Biochem. Pharmacol. 1973, 22, 3099-3108.] based on the IC50 and the respective Km, determined previously (Ki=IC50/(1+S/Km)). The Km for the substrate used was determined under the conditions of the test with at least 5 substrate concentrations ranging from 0.5 to 15 times Km. [Lottenberg R, Hall J A, Blinder M, Binder E P, Jackson C M., The action of thrombin on peptide p-nitroanilide substrates. Substrate selectivity and examination of hydrolysis under different reaction conditions. Biochim Biophys Acta. 1983 Feb. 15; 742(3):539-57]. According to Eadie [Eadie G.S. The inhibition of cholinesterase by physostigmine and prostigmine. J. Biol. Chem. 1942, 146, 85-93.], the Km for S-2222 amounted to 613 μM.
# T1 sequence (P00742 235-488 limits assumed): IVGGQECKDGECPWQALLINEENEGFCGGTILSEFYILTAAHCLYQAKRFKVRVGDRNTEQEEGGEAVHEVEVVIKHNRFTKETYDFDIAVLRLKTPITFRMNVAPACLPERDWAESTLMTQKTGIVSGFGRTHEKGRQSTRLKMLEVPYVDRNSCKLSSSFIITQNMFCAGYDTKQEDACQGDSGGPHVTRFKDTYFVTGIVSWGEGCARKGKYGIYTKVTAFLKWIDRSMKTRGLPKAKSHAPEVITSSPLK
# T1 sequence (P00742 41-179 partner limits assumed): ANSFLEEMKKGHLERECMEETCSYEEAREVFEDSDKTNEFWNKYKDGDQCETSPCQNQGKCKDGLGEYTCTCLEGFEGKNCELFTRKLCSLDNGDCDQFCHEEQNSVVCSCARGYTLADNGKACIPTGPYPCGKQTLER
row,SMILES,Ki [nM]
1,"O=C(Nc1ccc(-n2ccccc2=O)cc1F)C1Cc2cccnc2N1C(=O)Nc1ccc(Cl)cc1 (stereo not drawn) [Example 16, 2,3-Dihydro-pyrrolo[2,3-b]pyridine-1,2-dicarboxylic acid 1-[(4-chloro-phenyl)-amide]2-{[2-fluoro-4-(2-oxo-2H-pyridin-1-yl)-phenyl]-amide}]",51
2,"Cn1ncc2c1CN(C(=O)Nc1ccc(Cl)cn1)[C@H]2C(=O)Nc1ccc(-n2ccccc2=O)cc1F [Example 3, (R)-1-Methyl-4,6-dihydro-1H-pyrrolo[3,4-c]pyrazole-4,5-dicarboxylic acid 5-[(5-chloro-pyridin-2-yl)-amide]4-{[2-fluoro-4-(2-oxo-2H-pyridin-1-yl)-phenyl]-amide}]",19
3,"O=C(Nc1ccc(-n2ccccc2=O)cc1F)C1Cc2cccnc2CN1C(=O)Nc1ccc(Cl)cc1 (stereo not drawn) [Example 18, 5,8-Dihydro-6H-[1,7]naphthyridine-6,7-dicarboxylic acid 7-[(4-chloro-phenyl)-amide]6-{[2-fluoro-4-(2-oxo-2H-pyridin-1-yl)-phenyl]-amide}]",12
